Broadly, the MIC is the smallest concentration in the dilution series that meets the test's criterion for growth inhibition. Broadly, the IC50 is the midpoint of a concentration-inhibition curve.

The results in this text go back to ChEMBL document CHEMBL5241112, “Insights into the recent progress in the medicinal chemistry of pyranopyrimidine analogs” (RSC Med Chem, 2022).

The subject of assay [1] is Staphylococcus aureus. The assay can be described thus: Antimicrobial activity against Staphylococcus aureus assessed as diameter of inhibition zone at 5.0 mg/ml incubated for 12 hrs by agar disk diffusion method. It is filed as functional.
In assay [2] the test system is Escherichia coli. The assay is described as follows: Antimicrobial activity against Escherichia coli assessed as diameter of inhibition zone at 5.0 mg/ml incubated for 12 hrs by agar disk diffusion method. Format: functional. In general terms: In agar diffusion tests the substance spreads into inoculated agar from a disc or well.
The test system of assay [3] is Bacillus cereus. The assay can be described thus: Antimicrobial activity against Bacillus cereus assessed as diameter of inhibition zone at 5.0 mg/ml incubated for 12 hrs by agar disk diffusion method. Format: functional.
The test system of assay [4] is Escherichia coli. The assay is described as follows: Antibacterial activity against Escherichia coli ATCC 25922 assessed as inhibition of bacterial growth incubated for 24 hrs by broth macrodilution method. It is filed as functional.
The subject of assay [5] is Pseudomonas aeruginosa. The assay can be described thus: Antimicrobial activity against Pseudomonas aeruginosa assessed as diameter of inhibition zone at 1.2 mg/ml incubated for 12 hrs by agar disk diffusion method. It is filed as functional.
Assay [6] deals with Pseudomonas aeruginosa. The assay is described as follows: Antimicrobial activity against Pseudomonas aeruginosa assessed as diameter of inhibition zone at 5.0 mg/ml incubated for 12 hrs by agar disk diffusion method. Format: functional.
Assay [7] deals with Staphylococcus aureus. The assay is described as follows: Antimicrobial activity against Staphylococcus aureus assessed as diameter of inhibition zone at 2.5 mg/ml incubated for 12 hrs by agar disk diffusion method. It is filed as functional.
Assay [8] relates to Bacillus cereus. The assay is described as follows: Antimicrobial activity against Bacillus cereus assessed as diameter of inhibition zone at 1.2 mg/ml incubated for 12 hrs by agar disk diffusion method. Format: functional.
The subject of assay [9] is Pseudomonas aeruginosa. The assay is described as follows: Antibacterial activity against Pseudomonas aeruginosa ATCC 27853 assessed as inhibition of bacterial growth incubated for 24 hrs by broth macrodilution method. Format: functional.
The test system of assay [10] is Escherichia coli. The assay is described as follows: Antimicrobial activity against Escherichia coli assessed as diameter of inhibition zone at 1.2 mg/ml incubated for 12 hrs by agar disk diffusion method. It is filed as functional.
Assay [11] concerns Bacillus cereus. The assay can be described thus: Antimicrobial activity against Bacillus cereus assessed as diameter of inhibition zone at 2.5 mg/ml incubated for 12 hrs by agar disk diffusion method. Format: functional.
For assay [12], the system named is Pseudomonas aeruginosa. The assay is described as follows: Antibacterial activity against Pseudomonas aeruginosa ATCC 27853 assessed as diameter of inhibition zone incubated for 24 hrs by disc diffusion assay. It is filed as functional.
Assay [13] has as its system Escherichia coli. The assay can be described thus: Antibacterial activity against Escherichia coli ATCC 25922 assessed as diameter of inhibition zone incubated for 24 hrs by disc diffusion assay. Format: functional.
Assay [14] deals with Escherichia coli. The assay is described as follows: Antimicrobial activity against Escherichia coli assessed as diameter of inhibition zone at 2.5 mg/ml incubated for 12 hrs by agar disk diffusion method. It is filed as functional.
For assay [15], the system named is Pseudomonas aeruginosa. The assay can be described thus: Antimicrobial activity against Pseudomonas aeruginosa assessed as diameter of inhibition zone at 2.5 mg/ml incubated for 12 hrs by agar disk diffusion method. It is filed as functional.
Assay [16] relates to Staphylococcus aureus. The assay is described as follows: Antimicrobial activity against Staphylococcus aureus assessed as diameter of inhibition zone at 1.2 mg/ml incubated for 12 hrs by agar disk diffusion method. It is filed as functional.
In assay [17] the test system is MCF7. The assay is described as follows: Anticancer activity against human MCF7 cells assessed as reduction in cell viability. It is filed as functional, cell-based.
A further assay addresses DNA. The assay is described as follows: Binding affinity to DNA (unknown origin) assessed as DNA intercalation. It is filed as nucleic-acid assay.
For assay [18], the system named is HCT-116. The assay can be described thus: cells. The following applies: Homo sapiens.
In assay [19] the test system is HepG2. The assay is described as follows: Anticancer activity against human HepG2 cells assessed as reduction in cell viability. It is filed as functional, cell-based.
In the next assay the target is DNA topoisomerase II (Homo sapiens, UniProt P11388+Q02880). The assay is described as follows: Inhibition of DNA topoisomerase 2 (unknown origin). It is filed as protein assay.
For assay [20], the system named is Bacillus subtilis. The assay is described as follows: Antimicrobial activity against Bacillus subtilis assessed as diameter of inhibition zone by agar well diffusion method. Format: functional.
The subject of assay [21] is Escherichia coli. The assay can be described thus: Antimicrobial activity against Escherichia coli assessed as diameter of inhibition zone by agar well diffusion method. It is filed as functional.
A further assay relates to PC-3. The assay is described as follows: Anticancer activity against human PC-3 cells assessed as reduction in cell viability. Format: functional, cell-based.
The test system of assay [22] is MCF7. The assay is described as follows: Anticancer activity against human MCF7 cells assessed as reduction in cell viability incubated for 24 hrs by MTT colorimetric assay. Format: functional, cell-based. The following applies: MCF7, 24 h.
The test system of another assay is A549. The assay can be described thus: Anticancer activity against human A549 cells assessed as reduction in cell viability incubated for 24 hrs by MTT assay. The following applies: A549, 24 h. It is filed as functional, cell-based. A general note: Formazan colour is commonly taken as a measure of viable cells.
The test system of assay [23] is HepG2. The assay is described as follows: Anticancer activity against human HepG2 cells assessed as reduction in cell viability incubated for 24 hrs by MTT colorimetric assay. Format: functional, cell-based. The following applies: HepG2, 24 h.
The test system of assay [24] is HCT-116. The assay can be described thus: Anticancer activity against human HCT-116 cells assessed as reduction in cell viability incubated for 24 hrs by MTT colorimetric assay. Format: functional, cell-based. Particulars: HCT-116, 24 h.
In assay [25] the test system is Bacillus subtilis. The assay can be described thus: Antibacterial activity against Bacillus subtilis ATCC 6633 assessed as inhibition of bacterial growth incubated for 24 hrs by broth macrodilution method. Format: functional.
The test system of assay [26] is Staphylococcus aureus. The assay can be described thus: Antibacterial activity against Staphylococcus aureus ATCC 25923 assessed as inhibition of bacterial growth incubated for 24 hrs by broth macrodilution method. Format: functional.
Assay [27] concerns Bacillus subtilis. The assay can be described thus: Antibacterial activity against Bacillus subtilis ATCC 6633 assessed as diameter of inhibition zone incubated for 24 hrs by disc diffusion assay. Format: functional.
For assay [28], the system named is Staphylococcus aureus. The assay can be described thus: Antibacterial activity against Staphylococcus aureus ATCC 25923 assessed as diameter of inhibition zone incubated for 24 hrs by disc diffusion assay. Format: functional.

≈ marks a conversion by molar mass, not a printed value.

Consider GENTAMICIN, for which the inhibition zone (IZ) in the assay on Staphylococcus aureus [1] was found to be 18 mm; with Escherichia coli [2], 18 mm; in the assay on Bacillus cereus [3], 18 mm; with Pseudomonas aeruginosa [5], 11 mm; in the assay with Pseudomonas aeruginosa [6] it was 18 mm; in the assay on Staphylococcus aureus [7] it was 14 mm. Also, the inhibition zone (IZ) was found to be 11 mm with Bacillus cereus [8]; 11 mm with Escherichia coli [10]; 14 mm in the assay with Bacillus cereus [11]; 17.3 mm with Pseudomonas aeruginosa [12]; 21.3 mm in the assay with Escherichia coli [13]; 14 mm in the assay with Escherichia coli [14]. The inhibition zone (IZ) in the assay with Pseudomonas aeruginosa [15] stood at 14 mm; with Staphylococcus aureus [16] it was 11 mm. The MIC in the assay with Escherichia coli [4] is 3.68 µg/mL; with Pseudomonas aeruginosa [9], 15.4 µg/mL.
On to `COc1ccc(C2c3c([nH]c(=O)[nH]c3=O)Oc3ncn(-c4ccccc4O)c(=N)c32)cc1` (stereo not given), for which the IC50 in the assay with MCF7 [17] amounted to 2430 nM; on DNA it was 29.9 µM; in the assay on HCT-116 [18] it was 2610 nM; in the assay on HepG2 [19] it was 2090 nM; on DNA topoisomerase II, 0.776 µM.
`C[C@H]1COc2c(N3CCN(C)CC3)c(F)cc3c(=O)c(C(=O)O)cn1c23.C[C@H]1COc2c(N3CCN(C)CC3)c(F)cc3c(=O)c(C(=O)O)cn1c23.O` [LEVOFLOXACIN]: the “diameter of the inhibition zone (DIZ)” value with Bacillus subtilis [20] is 26 mm; in the assay on Escherichia coli [21], 29.35 mm.
Consider `CC(=O)C1=C(C)Oc2[nH]c(=O)[nH]c(=O)c2C1c1cccc([N+](=O)[O-])c1` (stereo not given), for which the IC50 came to 4.8 µg/mL (≈ 14 µM) in the assay with PC-3, 7.65 µg/mL with HCT-116 [18] and 5.21 µg/mL with HepG2 [19].
As to `COc1cccc2c1C(=O)c1c(O)c3c(c(O)c1C2=O)C[C@@](O)(C(=O)CO)C[C@@H]3O[C@H]1C[C@H](N)[C@H](O)[C@H](C)O1` [DOXORUBICIN], the IC50 in the assay on PC-3 worked out at 0.467 µg/mL (≈ 0.859 µM); in the assay with MCF7 [22], 467 nM; with A549 it was 140 nM; in the assay on HCT-116 [18], 2610 nM; with HepG2 [19] it was 7940 nM; with HepG2 [23], 467 nM. Further, the IC50 in the assay on HCT-116 [24] came out at 467 nM; against DNA topoisomerase II it was 0.94 µM.
Regarding `CC(C)c1ccc(C2C(C#N)=C(N)Oc3[nH]c(=O)[nH]c(=O)c32)cc1` (stereo not given), the “diameter of the inhibition zone (DIZ)” value in the assay with Bacillus subtilis [20] worked out at 13 mm; in the assay on Escherichia coli [21] it was 10.8 mm.
`CCOC(=O)C1=C(N)Oc2[nH]c(=O)[nH]c(=O)c2C1c1cccc([N+](=O)[O-])c1` (stereo not given): the half-maximal inhibitory concentration (IC50) in the assay with PC-3 is 0.25 µg/mL (≈ 0.668 µM); in the assay on HCT-116 [18] it was 0.25 µg/mL; with HepG2 [19], 0.25 µg/mL.
Turning to `COc1ccc(C2C(C#N)=C(N)Oc3[nH]c(=S)[nH]c(=O)c32)cc1` (stereo not given), the zone of inhibition at 5000 µg/mL with Staphylococcus aureus [1] (read-out: DIZ) was 20 mm; in the assay on Escherichia coli [2] (read-out: DIZ), 30 mm; in the assay with Bacillus cereus [3] (read-out: DIZ), 22 mm; with Pseudomonas aeruginosa [6] (read-out: DIZ), 30 mm. The zone of inhibition at 1200 µg/mL with Pseudomonas aeruginosa [5] (read-out: DIZ) is 12 mm; with Bacillus cereus [8] (read-out: DIZ), 14 mm; with Escherichia coli [10] (read-out: DIZ), 14 mm; in the assay on Staphylococcus aureus [16] (read-out: DIZ) it was 12 mm. The zone of inhibition at 2500 µg/mL in the assay on Staphylococcus aureus [7] (read-out: DIZ) came to 16 mm; with Bacillus cereus [11] (read-out: DIZ) it was 18 mm; with Escherichia coli [14] (read-out: DIZ), 20 mm; in the assay on Pseudomonas aeruginosa [15] (read-out: DIZ), 17 mm.
In the case of `CCC(C)n1cnc2c(c1=N)C(c1ccc(OC)cc1)c1c([nH]c(=O)[nH]c1=O)O2` (stereo not given), the values for the MIC in the assay on Bacillus subtilis [25] and in the assay with Staphylococcus aureus [26] were 0.097 µg/mL (≈ 0.245 µM) and 1.56 µg/mL (≈ 3.95 µM), respectively. In addition, the IC50 was found to be 2430 nM in the assay on MCF7 [17]; 27 µM at DNA; 2610 nM in the assay on HCT-116 [18]; 2090 nM in the assay with HepG2 [19]; 0.752 µM on DNA topoisomerase II. In addition, the figures for the “diameter of the inhibition zone (DIZ)” value in the assay with Bacillus subtilis [27] and with Staphylococcus aureus [28] were 26 mm and 20.8 mm, respectively.
